Tests used:
[1] = tested on: perceived human salt intensity; experiment: Human salty taste intensity test; type: in vivo; settings: 300-fold (amiloride) and 3000-fold (benzamil) above IC50 for alpha beta gamma ENaC in oocytes
Excerpt: Unlike other mammals, amiloride only slightly reduces the intensity of sodium chloride taste, i.e., by about 15-20% when used at concentrations that specifically modulate ENaC function. […] Thus, additional non-ENaC genes are likely involved in human taste and other biological functions.

[2] = molecular target: T1, alphaENaC channel (human alpha, beta and gamma subunits) (Homo sapiens, UniProt P37088+P51168+P51170); experiment: FLIPR membrane potential dye assay, dye loaded in absence of sodium (Protocol 1), alphaENaC-transfected HEK293 cells; type: cell-based
T1 construct: expressed in transfected cells; host or cells: HEK293, transient transfection
T1 sequence (P37088 1-669): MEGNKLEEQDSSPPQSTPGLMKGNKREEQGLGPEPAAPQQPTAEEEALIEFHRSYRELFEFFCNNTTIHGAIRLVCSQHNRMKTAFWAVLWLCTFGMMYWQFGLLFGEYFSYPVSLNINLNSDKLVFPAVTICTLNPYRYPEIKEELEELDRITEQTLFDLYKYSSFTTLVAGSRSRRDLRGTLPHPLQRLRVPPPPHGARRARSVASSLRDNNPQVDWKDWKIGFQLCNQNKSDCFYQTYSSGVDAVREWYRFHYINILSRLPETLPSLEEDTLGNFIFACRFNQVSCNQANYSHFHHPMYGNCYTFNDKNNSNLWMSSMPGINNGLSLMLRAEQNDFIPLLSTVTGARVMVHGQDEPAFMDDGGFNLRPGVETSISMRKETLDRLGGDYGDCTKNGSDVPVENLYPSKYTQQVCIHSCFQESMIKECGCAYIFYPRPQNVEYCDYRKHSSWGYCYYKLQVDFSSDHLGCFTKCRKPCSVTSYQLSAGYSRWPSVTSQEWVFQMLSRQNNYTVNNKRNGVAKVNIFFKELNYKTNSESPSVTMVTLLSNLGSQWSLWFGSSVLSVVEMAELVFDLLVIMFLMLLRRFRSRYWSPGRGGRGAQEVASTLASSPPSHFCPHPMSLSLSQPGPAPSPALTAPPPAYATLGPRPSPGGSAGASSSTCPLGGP
T1 sequence (P51168 1-640): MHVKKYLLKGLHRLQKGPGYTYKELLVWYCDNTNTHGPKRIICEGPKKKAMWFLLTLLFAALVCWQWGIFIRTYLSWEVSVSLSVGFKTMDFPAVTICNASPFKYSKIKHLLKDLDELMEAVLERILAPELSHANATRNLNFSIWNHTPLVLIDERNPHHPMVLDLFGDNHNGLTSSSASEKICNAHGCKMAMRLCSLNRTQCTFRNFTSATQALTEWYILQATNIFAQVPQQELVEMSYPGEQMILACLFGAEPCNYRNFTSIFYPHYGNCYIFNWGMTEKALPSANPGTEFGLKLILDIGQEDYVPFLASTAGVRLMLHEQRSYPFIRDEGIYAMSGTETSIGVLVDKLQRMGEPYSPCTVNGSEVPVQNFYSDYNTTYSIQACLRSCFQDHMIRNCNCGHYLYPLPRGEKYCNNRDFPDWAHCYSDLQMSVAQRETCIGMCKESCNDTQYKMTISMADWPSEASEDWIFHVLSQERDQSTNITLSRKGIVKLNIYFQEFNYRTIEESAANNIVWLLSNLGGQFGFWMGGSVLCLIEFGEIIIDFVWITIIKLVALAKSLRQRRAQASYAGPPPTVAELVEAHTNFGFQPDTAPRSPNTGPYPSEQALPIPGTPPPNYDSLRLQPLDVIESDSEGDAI
T1 sequence (P51170 1-649): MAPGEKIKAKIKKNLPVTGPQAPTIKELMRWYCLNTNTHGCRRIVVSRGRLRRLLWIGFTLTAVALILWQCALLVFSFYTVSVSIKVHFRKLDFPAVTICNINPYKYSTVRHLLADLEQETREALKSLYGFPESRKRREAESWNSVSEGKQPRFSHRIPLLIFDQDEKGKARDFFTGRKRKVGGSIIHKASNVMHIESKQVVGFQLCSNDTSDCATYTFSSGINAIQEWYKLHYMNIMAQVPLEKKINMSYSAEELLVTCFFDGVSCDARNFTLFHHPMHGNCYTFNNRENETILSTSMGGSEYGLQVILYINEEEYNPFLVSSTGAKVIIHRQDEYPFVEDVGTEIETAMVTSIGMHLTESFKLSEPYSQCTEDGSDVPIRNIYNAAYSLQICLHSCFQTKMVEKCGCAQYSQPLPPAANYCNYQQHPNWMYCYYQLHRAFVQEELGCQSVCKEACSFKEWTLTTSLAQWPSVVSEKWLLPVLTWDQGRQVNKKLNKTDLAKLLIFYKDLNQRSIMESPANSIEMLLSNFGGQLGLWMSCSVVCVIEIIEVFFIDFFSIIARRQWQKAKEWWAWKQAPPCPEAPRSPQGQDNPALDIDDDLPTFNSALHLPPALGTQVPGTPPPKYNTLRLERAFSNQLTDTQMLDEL
Excerpt: (§1) In this experiment HEK293 cells which were transfected with sequences encoding the human alpha, beta and gamma subunits were used to screen for the effect of amiloride on NaCl induced changes in membrane potential. […] These HEK293 cells were transiently transfected with plasmids containing the alpha, beta and gamma ENaC encoding nucleic acid sequences and then loaded with a membrane potential dye (FMP; Molecular Devices) in the absence of sodium (NaCl was replaced with NMDG) at room temperature for one hour. Cells were then stimulated with 70 mM NaCl with (red trace) or without (white trace) 6.25 micromolar amiloride. Changes in membrane potential (fluorescent signal) in HEK293 cells were monitored on a FLIPR system (Molecular Devices). […] HEK293 cells were transiently transfected with the gamma, beta, and delta subunit containing plasmids and were loaded with a membrane potential dye (FMP; Molecular Devices) in the absence of sodium (NaCl was replaced with NMDG) at room temperature for one hour. Cells were then stimulated with 70 mM NaCl with (red trace) or without (white trace) 50 micromolar amiloride. Changes in membrane potential (fluorescent signal) were monitored on a FLIPR system (Molecular Devices). […] Therein cells were prepared and treated as in Panels A and B. Increasing concentrations of amiloride were used to assess potency at inhibiting the different forms of ENaC.
This example relates to the fluorescent experiments contained in FIG. 2, Panels A, B and C. In the experiment in Panel A it can be seen that the enhancer S559 increases the NaCl-induced change in membrane potential in HEK293 cells expressing the alphaENaC channel. […] Changes in membrane potential (fluorescent signal) were monitored on a FLIPR system (Molecular Devices). […] Changes in membrane potential (Fluorescent signal) were monitored on a FLIPR system (Molecular Devices).

[3] = molecular target: T2, deltaENaC channel (gamma, beta, and delta subunit) (Homo sapiens, UniProt P51168+P51170+P51172); experiment: FLIPR membrane potential dye assay, dye loaded in absence of sodium (Protocol 1), deltaENaC-transfected HEK293 cells; type: cell-based; settings: 50 micromolar amiloride; 70 mM NaCl stimulus; dye loaded without sodium (NMDG)
T2 construct: expressed in transfected cells; host or cells: HEK293, transient transfection
T2 sequence (P51172 1-638 isoform P51172-1): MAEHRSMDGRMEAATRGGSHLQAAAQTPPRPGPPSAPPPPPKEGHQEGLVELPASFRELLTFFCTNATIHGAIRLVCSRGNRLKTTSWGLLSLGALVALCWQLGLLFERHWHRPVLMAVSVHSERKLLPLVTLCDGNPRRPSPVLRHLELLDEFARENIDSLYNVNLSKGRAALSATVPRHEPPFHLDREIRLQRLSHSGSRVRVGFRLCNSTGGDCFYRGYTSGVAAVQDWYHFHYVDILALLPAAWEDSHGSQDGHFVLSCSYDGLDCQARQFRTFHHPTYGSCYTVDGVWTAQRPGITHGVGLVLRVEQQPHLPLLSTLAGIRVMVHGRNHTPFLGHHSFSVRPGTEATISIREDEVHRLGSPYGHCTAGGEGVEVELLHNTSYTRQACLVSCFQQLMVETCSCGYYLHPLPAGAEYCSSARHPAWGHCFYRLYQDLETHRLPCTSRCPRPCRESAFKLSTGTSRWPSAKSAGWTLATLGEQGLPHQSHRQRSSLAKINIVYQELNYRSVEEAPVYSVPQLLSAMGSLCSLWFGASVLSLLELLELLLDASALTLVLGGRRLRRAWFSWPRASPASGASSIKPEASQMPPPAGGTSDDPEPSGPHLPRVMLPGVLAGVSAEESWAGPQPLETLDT
T2 sequence (P51168 1-640): T1 sequence (P51168 1-640)
T2 sequence (P51170 1-649): T1 sequence (P51170 1-649)
Excerpt: as §1

[4] = molecular target: T3, alphaENaC channel (alpha, beta and gamma ENaC subunits) (Homo sapiens, UniProt P37088+P51168+P51170); experiment: FLIPR membrane potential dye assay, dye loaded in 140 mM NaCl (Protocol 2), alphaENaC-transfected HEK293 cells; type: cell-based; settings: 3 micromolar amiloride
T3 construct: expressed in transfected cells; host or cells: HEK293, transient transfection
T3 sequence (P37088 1-669): T1 sequence (P37088 1-669)
T3 sequence (P51168 1-640): T1 sequence (P51168 1-640)
T3 sequence (P51170 1-649): T1 sequence (P51170 1-649)
Excerpt: This example relates to the fluorescent experiments contained in FIG. 2, Panels A, B and C. In the experiment in Panel A it can be seen that the enhancer S559 increases the NaCl-induced change in membrane potential in HEK293 cells expressing the alphaENaC channel. HEK293 cells were transiently transfected with plasmids containing sequences encoding the human alpha, beta, and gamma ENaC subunits and were loaded with a membrane potential dye (FMP; Molecular Devices) in the absence of sodium (NaCl was replaced with NMDG) at room temperature for one hour. Cells were then stimulated with 17.5 mM NaCl with (red trace) and without (white trace) 15 micromolar S559. Changes in membrane potential (fluorescent signal) were monitored on a FLIPR system (Molecular Devices). […] Changes in membrane potential (Fluorescent signal) were monitored on a FLIPR system (Molecular Devices).
In the experiment HEK293 cells again transfected transiently with plasmids containing the alpha, beta, and gamma ENaC subunit nucleic acid sequences and were treated as described in Example 2., Panel B (Protocol 2). Changes in membrane potential (fluorescent signal) were monitored on a FLIPR system (Molecular Devices). […] Changes in membrane potential (fluorescent signal) were monitored on a FLIPR system (Molecular Devices). […]

[5] = tested on: perceived human salt intensity; settings: concentrations that specifically modulate ENaC function; cited from earlier work
HEK293 cells = experiment: FLIPR membrane potential control in mock-transfected or un-transfected HEK293 cells (Protocol 2); type: cell-based; settings: HEK293 transfected with mock plasmid (pUC19)
Description: In the experiment HEK293 cells again transfected transiently with plasmids containing the alpha, beta, and gamma ENaC subunit nucleic acid sequences and were treated as described in Example 2., Panel B (Protocol 2). Changes in membrane potential (fluorescent signal) were monitored on a FLIPR system (Molecular Devices). […] HEK293 cells were transfected with a mock plasmid (pUC19) and treated as described above. Changes in membrane potential (fluorescent signal) were monitored on a FLIPR system (Molecular Devices).
HEK293 cells transiently transfected with plasmids containing nucleic acid sequences encoding the human delta, beta and gamma ENaC subunits and were treated as described in FIG. 2; Panel B (Protocol 2).

Compound	effect on perceived human salt intensity [1]	inhibition of NaCl induced changes in membrane potential ([2]; 6.25 micromolar amiloride, 70 mM NaCl stimulus, dye loaded without sodium (NMDG))	apparent affinity on α-ENaC transfected cells relative to δ-ENaC transfected cells ([2]; dye loaded in absence of sodium, sodium add back)	potency at inhibiting alphaENaC versus deltaENaC ([2]; increasing concentrations of amiloride, cells treated as in Panels A and B)	inhibition of NaCl induced change in membrane potential [3]	block of S559 enhancer effects [4]	reduction of intensity of sodium chloride taste [5]	effect on membrane potential in cells that do not express alphaENaC (HEK293 cells)
N=C(N)NC(=O)c1nc(Cl)c(N)nc1N [amiloride]	did not elicit a significant effect	totally inhibited	at least 10 fold	more potent at inhibiting alphaENaC than deltaENaC	totally inhibited	almost totally abolishes	15-20%	do not exhibit any effect
NC(=Nc1ccccc1)NC(=O)c1nc(Cl)c(N)nc1N [phenamil]	did not elicit a significant effect							

From patent publication US9244081B2, “Cell-based fluorescent assays for identifying alpha and delta ENaC modulators” (Senomyx, Inc., priority 2006, dated 2016)
